The term IC50 denotes the point on the concentration scale where inhibition reaches its midpoint.

The target of this experiment is T1, Recombinant human EP300 containing the bromodomain (EP300-BD (1040-1161)) (Homo sapiens, UniProt Q09472).
T1 construct: Recombinant human EP300 bromodomain (EP300-BD (1040-1161)); made in house; host or cells: E. coli BL21-CodonPlus (DE3), modified pET vector
T1 sequence (Q09472 1040-1161): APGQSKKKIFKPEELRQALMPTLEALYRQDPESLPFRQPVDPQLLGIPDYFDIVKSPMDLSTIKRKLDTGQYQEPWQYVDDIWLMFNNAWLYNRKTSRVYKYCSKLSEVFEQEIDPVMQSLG
The experiment is described as follows: EP300 Alphascreen binding assay. The method, boiled down:
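Displacement of a biotinylated acetyl-K56 histone H3 peptide from the N-His bromodomain construct (1040-1161) measured by AlphaScreen proximity, beads at 7.5 μg/ml final, read 60 min after addition. Protein, peptide and compound first incubated 1 h at room temperature, pH 7.5 HEPES buffer; IC50 by four-parameter logistic fit.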
Background: Alpha assays give light when donor and acceptor beads are brought close together.

For the compound `Cc1noc(C)c1-c1cnc2c(c1)c(-c1c(Cl)cc(C(=O)O)cc1OC(C)C)cn2C1(C)CCOCC1` [P-0404, 3-chloro-4-(5-(3,5-dimethylisoxazol-4-yl)-1-(4-methyltetrahydro-2H-pyran-4-yl)-1H-pyrrolo[2,3-b]pyridin-3-yl)-5-isopropoxybenzoic acid], the IC50 is 0.1 to 1000 nM.

Take `CCOc1nc(C(=O)O)ccc1-c1cn(C2(C)CCOCC2)c2ncc(-c3c(C)noc3C)cc12` [P-0405, 5-(5-(3,5-dimethylisoxazol-4-yl)-1-(4-methyltetrahydro-2H-pyran-4-yl)-1H-pyrrolo[2,3-b]pyridin-3-yl)-6-ethoxypicolinic acid]: the IC50 lay in the range of 0.1 to 1000 nM.

Consider `CCOc1nc(C(=O)O)c(Cl)cc1-c1cn([C@H]2CCOC2)c2ncc(-c3c(C)noc3C)cc12` [P-0406, (S)-3-chloro-5-(5-(3,5-dimethylisoxazol-4-yl)-1-(tetrahydrofuran-3-yl)-1H-pyrrolo[2,3-b]pyridin-3-yl)-6-ethoxypicolinic acid], for which the IC50 fell in the range of 0.1 to 1000 nM.

Take `Cc1noc(C)c1-c1cnc2c(c1)c(-c1ccc(C(=O)O)cc1OC(C)C)cn2C1(C)CCOC1` (centres unmarked) [P-0407, 4-(5-(3,5-dimethylisoxazol-4-yl)-1-(3-methyltetrahydrofuran-3-yl)-1H-pyrrolo[2,3-b]pyridin-3-yl)-3-isopropoxybenzoic acid]: the IC50 was in the range of 0.1 to 1000 nM.

For `Cc1noc(C)c1-c1cnc2c(c1)c(-c1c(Cl)cc(C(=O)O)cc1OC(C)C)cn2C1(C)CCOC1` (centres unmarked) [P-0408, 3-chloro-4-(5-(3,5-dimethylisoxazol-4-yl)-1-(3-methyltetrahydrofuran-3-yl)-1H-pyrrolo[2,3-b]pyridin-3-yl)-5-isopropoxybenzoic acid], the IC50 lay within 0.1 to 1000 nM.

With `Cc1noc(C)c1-c1cnc2c(c1)c(-c1c(Cl)cc(C(=O)O)cc1OC1CC1)cn2-c1ncccc1C#N` [P-0409, 3-chloro-4-(1-(3-cyanopyridin-2-yl)-5-(3,5-dimethylisoxazol-4-yl)-1H-pyrrolo[2,3-b]pyridin-3-yl)-5-cyclopropoxybenzoic acid], the IC50 fell in the range of 0.1 to 1000 nM.

Turning to `Cc1noc(C)c1-c1cnc2c(c1)c(-c1c(F)cc(C(=O)O)cc1OC1CCC1)cn2C1CCOCC1` [P-0410, 3-cyclobutoxy-4-(5-(3,5-dimethylisoxazol-4-yl)-1-(tetrahydro-2H-pyran-4-yl)-1H-pyrrolo[2,3-b]pyridin-3-yl)-5-fluorobenzoic acid], the IC50 is 0.1 to 1000 nM.

Regarding `CCOc1nc(C(=O)O)cc(C)c1-c1cn(C2CCOCC2)c2ncc(-c3c(C)noc3C)cc12` [P-0411, 5-(5-(3,5-dimethylisoxazol-4-yl)-1-(tetrahydro-2H-pyran-4-yl)-1H-pyrrolo[2,3-b]pyridin-3-yl)-6-ethoxy-4-methylpicolinic acid], the IC50 was 0.1 to 1000 nM.

Take `CCOc1nc(C(=O)O)cc(C)c1-c1cn(-c2ccc(F)cc2F)c2ncc(-c3c(C)noc3C)cc12` [P-0412, 5-(1-(2,4-difluorophenyl)-5-(3,5-dimethylisoxazol-4-yl)-1H-pyrrolo[2,3-b]pyridin-3-yl)-6-ethoxy-4-methylpicolinic acid]: the IC50 was 0.1 to 1000 nM.

As for `Cc1nnn(C)c1-c1cnc2c(c1)c(-c1ccc(C(=O)O)cc1OC1CC1)cn2C1CCOCC1` [P-0413, 3-cyclopropoxy-4-(5-(1,4-dimethyl-1H-1,2,3-triazol-5-yl)-1-(tetrahydro-2H-pyran-4-yl)-1H-pyrrolo[2,3-b]pyridin-3-yl)benzoic acid], the IC50 fell in the range of 0.1 to 1000 nM.

Take `CCOc1cc(C(=O)O)nc(OCC)c1-c1cn(-c2ccccc2F)c2ncc(-c3c(C)noc3C)cc12` [P-0414, 5-(5-(3,5-dimethylisoxazol-4-yl)-1-(2-fluorophenyl)-1H-pyrrolo[2,3-b]pyridin-3-yl)-4,6-diethoxypicolinic acid]: the IC50 lay in the range of 0.1 to 1000 nM.

On to `CCOc1cc(C(=O)O)nc(OCC)c1-c1cn([C@@H](C)c2ccccn2)c2ncc(-c3c(C)noc3C)cc12` [P-0415, (S)-5-(5-(3,5-dimethylisoxazol-4-yl)-1-(1-(pyridin-2-yl)ethyl)-1H-pyrrolo[2,3-b]pyridin-3-yl)-4,6-diethoxypicolinic acid], for which the 50% inhibitory concentration (IC50) was in the range of 0.1 to 1000 nM.

In the case of `CCOc1nc(C(=O)O)c(C)cc1-c1cn(C(C2CC2)C2CC2)c2ncc(-c3c(C)noc3C)cc12` [P-0416, 5-(1-(dicyclopropylmethyl)-5-(3,5-dimethylisoxazol-4-yl)-1H-pyrrolo[2,3-b]pyridin-3-yl)-6-ethoxy-3-methylpicolinic acid], the concentration for half-maximal inhibition (IC50) fell in the range of 0.1 to 1000 nM.

In the case of `CCOc1nc(C(=O)O)cc(C)c1-c1cn(C(C2CC2)C2CC2)c2ncc(-c3c(C)noc3C)cc12` [P-0417, 5-(1-(dicyclopropylmethyl)-5-(3,5-dimethylisoxazol-4-yl)-1H-pyrrolo[2,3-b]pyridin-3-yl)-6-ethoxy-4-methylpicolinic acid], the IC50 was 0.1 to 1000 nM.

On to `Cc1noc(C)c1-c1cnc2c(c1)c(-c1ccnc(C(=O)O)c1C)cn2C(C1CC1)C1CC1` [P-0418, 4-(1-(dicyclopropylmethyl)-5-(3,5-dimethylisoxazol-4-yl)-1H-pyrrolo[2,3-b]pyridin-3-yl)-3-methylpicolinic acid], for which the IC50 lay within 0.1 to 1000 nM.

For the compound `Cc1noc(C)c1-c1cnc2c(c1)c(-c1ccnc(C(=O)O)c1C)cn2C1CCOCC1` [P-0419, 4-(5-(3,5-dimethylisoxazol-4-yl)-1-(tetrahydro-2H-pyran-4-yl)-1H-pyrrolo[2,3-b]pyridin-3-yl)-3-methylpicolinic acid], the IC50 is 0.1 to 1000 nM.

On to `CCOc1cc(C(=O)O)nc(OCC)c1-c1cn(C(C2CC2)C2CC2)c2ncc(-c3c(C)noc3C)cc12` [P-0420, 5-(1-(dicyclopropylmethyl)-5-(3,5-dimethylisoxazol-4-yl)-1H-pyrrolo[2,3-b]pyridin-3-yl)-4,6-diethoxypicolinic acid], for which the IC50 is 0.1 to 1000 nM.

Take `CCOc1cc(C(=O)O)nc(OCC)c1-c1cn(-c2ncccc2C#N)c2ncc(-c3c(C)noc3C)cc12` [P-0421, 5-(1-(3-cyanopyridin-2-yl)-5-(3,5-dimethylisoxazol-4-yl)-1H-pyrrolo[2,3-b]pyridin-3-yl)-4,6-diethoxypicolinic acid]: the IC50 lay within 0.1 to 1000 nM.

For the compound `CCOc1cc(C(=O)O)nc(OCC)c1-c1cn(-c2ncccc2C(N)=O)c2ncc(-c3c(C)noc3C)cc12` [P-0422, 5-(1-(3-carbamoylpyridin-2-yl)-5-(3,5-dimethylisoxazol-4-yl)-1H-pyrrolo[2,3-b]pyridin-3-yl)-4,6-diethoxypicolinic acid], the IC50 lay in the range of 0.1 to 1000 nM.

As for `CCOc1cc(C(=O)O)nc(OCC)c1-c1cn(-c2ccc(C#N)cc2F)c2ncc(-c3c(C)noc3C)cc12` [P-0423, 5-(1-(4-cyano-2-fluorophenyl)-5-(3,5-dimethylisoxazol-4-yl)-1H-pyrrolo[2,3-b]pyridin-3-yl)-4,6-diethoxypicolinic acid], the IC50 lay in the range of 0.1 to 1000 nM.

With `CCOc1cc(C(=O)O)nc(OCC)c1-c1cn(-c2cnc(C3CC3)nc2)c2ncc(-c3c(C)noc3C)cc12` [P-0424, 5-(1-(2-cyclopropylpyrimidin-5-yl)-5-(3,5-dimethylisoxazol-4-yl)-1H-pyrrolo[2,3-b]pyridin-3-yl)-4,6-diethoxypicolinic acid], the IC50 is 0.1 to 1000 nM.

`CCOc1cc(C(=O)O)nc(OCC)c1-c1cn(C2CCC(F)(F)CC2)c2ncc(-c3c(C)noc3C)cc12` [P-0425, 5-(1-(4,4-difluorocyclohexyl)-5-(3,5-dimethylisoxazol-4-yl)-1H-pyrrolo[2,3-b]pyridin-3-yl)-4,6-diethoxypicolinic acid]: the IC50 was 0.1 to 1000 nM.

Take `CCOc1cc(C(=O)O)ncc1-c1cn(C(C2CC2)C2CC2)c2ncc(-c3c(C)noc3C)cc12` [P-0427, 5-(1-(dicyclopropylmethyl)-5-(3,5-dimethylisoxazol-4-yl)-1H-pyrrolo[2,3-b]pyridin-3-yl)-4-ethoxypicolinic acid]: the IC50 fell in the range of 0.1 to 1000 nM.

With `CCOc1cc(C(=O)O)ncc1-c1cn(C2CCOCC2)c2ncc(-c3c(C)noc3C)cc12` [P-0428, 5-(5-(3,5-dimethylisoxazol-4-yl)-1-(tetrahydro-2H-pyran-4-yl)-1H-pyrrolo[2,3-b]pyridin-3-yl)-4-ethoxypicolinic acid], the IC50 was in the range of 0.1 to 1000 nM.

Take `CCOc1cc(C(=O)O)nc(OCC)c1-c1cn(-c2cn(C(F)F)nc2C)c2ncc(-c3c(C)noc3C)cc12` [P-0429, 5-(1-(1-(difluoromethyl)-3-methyl-1H-pyrazol-4-yl)-5-(3,5-dimethylisoxazol-4-yl)-1H-pyrrolo[2,3-b]pyridin-3-yl)-4,6-diethoxypicolinic acid]: the IC50 was in the range of 0.1 to 1000 nM.

Turning to `CCOc1cc(C(=O)O)nc(OCC)c1-c1cn(-c2cn(CC)nc2C)c2ncc(-c3c(C)noc3C)cc12` [P-0430, 5-(5-(3,5-dimethylisoxazol-4-yl)-1-(1-ethyl-3-methyl-1H-pyrazol-4-yl)-1H-pyrrolo[2,3-b]pyridin-3-yl)-4,6-diethoxypicolinic acid], the IC50 was in the range of 0.1 to 1000 nM.

With `CCOc1cc(C(=O)O)nc(OCC)c1-n1cc(-c2ccc(F)cc2F)c2ncc(-c3c(C)noc3C)cc21` [P-0431, 5-(3-(2,4-difluorophenyl)-6-(3,5-dimethylisoxazol-4-yl)-1H-pyrrolo[3,2-b]pyridin-1-yl)-4,6-diethoxypicolinic acid], the IC50 is 0.1 to 1000 nM.

With `CCOc1cc(C(=O)OC)nc(OCC)c1-c1cn(-c2ccc(F)cc2F)c2ncc(-c3c(C)noc3C)cc12` [P-0432, methyl 5-(1-(2,4-difluorophenyl)-5-(3,5-dimethylisoxazol-4-yl)-1H-pyrrolo[2,3-b]pyridin-3-yl)-4,6-diethoxypicolinate], the IC50 lay within 0.1 to 1000 nM.

Take `CCOc1cc(C(=O)O)nc(OCC)c1-c1cn(C2CCN(C(=O)OC(C)(C)C)CC2)c2ncc(-c3c(C)noc3C)cc12` [P-0433, 5-(1-(1-(tert-butoxycarbonyl)piperidin-4-yl)-5-(3,5-dimethylisoxazol-4-yl)-1H-pyrrolo[2,3-b]pyridin-3-yl)-4,6-diethoxypicolinic acid]: the IC50 lay in the range of 0.1 to 1000 nM.

For the origin of these results see patent publication US11446287B2, “Compounds and methods for EP300 or CBP modulation and indications therefor” (Opna Immuno-Oncology SA, priority 2019, dated 2022).
